Reference: US10717733B2, “Haloallylamine indole and azaindole derivative inhibitors of lysyl oxidases and uses thereof” (PHARMAXIS LTD., priority 2016, dated 2020)
Where a name gives a salt, the structure may show the parent alone.

Key:
Assay type in all cases: biochemical
Human LOXL2 = Human LOXL2 (Homo sapiens (Human), UniProt Q9Y4K0); assay: LOXL2 inhibition, peroxidase-coupled Amplex Red amine oxidase assay; settings: 30 min preincubation at 37° C., putrescine substrate
Description: (§1) Method to Determine the Ability of Compounds of the Invention to Inhibit LOX and LOXL1-4 from Different Sources
(§2) Lysyl oxidase (LOX) is an extracellular copper dependent enzyme which oxidizes peptidyl lysine and hydroxylysine residues in collagen and lysine residues in elastin to produce peptidyl alpha-aminoadipic-delta-semialdehydes. […] There are five LOX family members; these are LOX, LOXL1, LOXL2, LOXL3 and LOXL4. LOX and LOXL family members can be acquired as recombinant active proteins from commercial sources, or extracted from animal tissues like bovine aorta, tendons, pig skin; or prepared from cell cultures. The inhibitory effects of the compounds of the present invention were tested against the given LOX-LOXL preparation using a high-throughput coupled colorimetric method (Holt A. and Palcic M., A peroxidase-coupled continuous absorbance plate-reader assay for flavin monoamine oxidases, copper-containing amine oxidases and related enzymes. Nat. Protoc. 2006; 1: 2498-2505). The assay was developed using either 384 or 96 well format. Briefly, in a standard 384 well plate assay 25 μL of a dilution of any of the isoenzymes and orthologues in 1.2 M urea, 50 mM sodium borate buffer (pH 8.2) were added into each well in the presence of 1 μM mofegiline and 0.5 mM pargyline (to inhibit SSAO and MAO-B and MAO-A, respectively). Test compounds were dissolved in DMSO and tested in a Concentration Response Curve (CRC) with 11 data points, typically in the micromolar or nanomolar range after incubation with the enzyme for 30 min at 37° C. Twenty five L of a reaction mixture containing twice the KM concentration of putrescine (Sigma Aldrich, e.g. 20 mM for LOX, or 10 mM for LOXL2 and LOXL3), 120 μM Amplex Red (Sigma Aldrich) and 1.5 U/mL horseradish peroxidase (Sigma Aldrich) prepared in 1.2 M urea, 50 mM sodium borate buffer (pH 8.2) were then added to the corresponding wells. The above volumes were doubled in the case of 96 wells plate. The fluorescence (RFU) was read every 2.5 min for 30 min at a range of temperatures from 37° to 45° C., excitation 565 nm and emission 590 (Optima; BMG labtech). The slope of the kinetics for each well was calculated using MARS data analysis software (BMG labtech) and this value was used to deduce the IC50 value (Dotmatics).

Bovine LOX = Bovine LOX (Bos taurus (Bovine), UniProt P33072); assay: LOX inhibition, peroxidase-coupled Amplex Red amine oxidase assay; settings: 30 min preincubation at 37° C., putrescine substrate
Description: as §1
as §2, with “Test compounds were dissolved in DMSO and tested in a Concentration Response Curve (CRC) with 11 data points, typically in the micromolar or nanomolar range after incubation with the enzyme for 30 min at 37° C.” left out

Recombinant human MAO-B = Recombinant human MAO-B (Homo sapiens (Human), UniProt P27338); assay: Inhibition of human recombinant MAO-B; settings: benzylamine 100 μM
Method: Method to Determine the Ability of Compounds of Formula I to Inhibit Human Recombinant MAO-B
The specificity of the compounds of this invention was tested by determining their ability to inhibit MAO-B activities in vitro. Recombinant human MAO-B (0.06 mg/mL; Sigma Aldrich) was used as source of MAO-B enzyme activities. The assay was performed in a similar way as for human SSAO/VAP-1 (Example 66) except, the substrate benzylamine was used at 100 μM.

[1] = molecular target: human recombinant SSAO/VAP-1 (Homo sapiens (Human), UniProt Q16853); assay: Inhibition of human recombinant SSAO/VAP-1 amine oxidase activity; settings: 30 min preincubation at 37° C., 600 μM benzylamine
Method: Method to Determine the Ability of Compounds of Formula I to Inhibit Human Recombinant SSAO/VAP-1
Human recombinant SSAO/VAP-1 amine oxidase activity was determined using the coupled colorimetric method as described for monoamine oxidase, copper-containing amine oxidases and related enzymes (Holt A. and Palcic M., A peroxidase-coupled continuous absorbance plate-reader assay for flavin monoamine oxidases, copper-containing amine oxidases and related enzymes. Nat Protoc 2006; 1: 2498-2505). Briefly, a cloned cDNA template corresponding to residues 34-763 of human SSAO/VAP-1, and incorporating a mouse Ig kappa (κ) signal sequence, N-terminal flag epitope tag and tobacco etch virus (TEV) cleavage site, was assembled in a mammalian expression vector (pLO-CMV) by Geneart AG. This vector containing human SSAO/VAP-1 residues was transfected into CHO-K1 glycosylation mutant cell line, Lec 8. A clone stably expressing human SSAO/VAP-1 was isolated and cultured in large scale. Active human SSAO/VAP-1 was purified and recovered using immunoaffinity chromatography. This was used as the source for SSAO/VAP-1 activity. A high-throughput colorimetric assay was developed using either 96 or 384 well format. Briefly, in a standard 96 well plate assay 50 μL of purified human SSAO/VAP-1 (0.25 μg/mL) in 0.1 M sodium phosphate buffer (pH 7.4) was added into each well. Test compounds were dissolved in DMSO and tested in a Concentration Response Curve (CRC) with 4-11 data points, typically in the micromolar or nanomolar range after incubation with human SSAO/VAP-1 for 30 min at 37° C. After 30 min incubation, 50 μL of the reaction mixture containing 600 μM benzylamine (Sigma Aldrich), 120 μM Amplex Red (Sigma Aldrich) and 1.5 U/mL horseradish peroxidase (Sigma Aldrich) prepared in 0.1 M sodium phosphate buffer (pH 7.4) were added to the corresponding well. The fluorescence unit (RFU) was read every 2.5 min for 30 min at 37° C. excitation 565 nm and emission 590 (Optima; BMG labtech). The slope of the kinetics for each well was calculated using MARS data analysis software (BMG labtech) and this value was used to deduce the IC50 value (Dotmatics).

Recombinant human MAO-B, sequence (P27338 whole entry): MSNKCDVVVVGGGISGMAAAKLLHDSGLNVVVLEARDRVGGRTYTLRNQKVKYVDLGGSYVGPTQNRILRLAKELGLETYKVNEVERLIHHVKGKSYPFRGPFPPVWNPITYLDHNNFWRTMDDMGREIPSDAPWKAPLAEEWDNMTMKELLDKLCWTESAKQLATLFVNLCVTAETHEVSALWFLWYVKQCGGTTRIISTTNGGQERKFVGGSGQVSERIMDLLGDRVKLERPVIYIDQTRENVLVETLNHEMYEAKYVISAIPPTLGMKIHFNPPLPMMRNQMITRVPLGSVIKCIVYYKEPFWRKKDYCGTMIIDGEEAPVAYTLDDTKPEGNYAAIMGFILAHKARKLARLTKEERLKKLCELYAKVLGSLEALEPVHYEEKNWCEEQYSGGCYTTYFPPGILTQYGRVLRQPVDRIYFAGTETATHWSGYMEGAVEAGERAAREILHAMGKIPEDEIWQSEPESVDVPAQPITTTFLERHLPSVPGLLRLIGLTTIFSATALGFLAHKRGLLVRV
human recombinant SSAO/VAP-1, sequence (Q16853 34-763): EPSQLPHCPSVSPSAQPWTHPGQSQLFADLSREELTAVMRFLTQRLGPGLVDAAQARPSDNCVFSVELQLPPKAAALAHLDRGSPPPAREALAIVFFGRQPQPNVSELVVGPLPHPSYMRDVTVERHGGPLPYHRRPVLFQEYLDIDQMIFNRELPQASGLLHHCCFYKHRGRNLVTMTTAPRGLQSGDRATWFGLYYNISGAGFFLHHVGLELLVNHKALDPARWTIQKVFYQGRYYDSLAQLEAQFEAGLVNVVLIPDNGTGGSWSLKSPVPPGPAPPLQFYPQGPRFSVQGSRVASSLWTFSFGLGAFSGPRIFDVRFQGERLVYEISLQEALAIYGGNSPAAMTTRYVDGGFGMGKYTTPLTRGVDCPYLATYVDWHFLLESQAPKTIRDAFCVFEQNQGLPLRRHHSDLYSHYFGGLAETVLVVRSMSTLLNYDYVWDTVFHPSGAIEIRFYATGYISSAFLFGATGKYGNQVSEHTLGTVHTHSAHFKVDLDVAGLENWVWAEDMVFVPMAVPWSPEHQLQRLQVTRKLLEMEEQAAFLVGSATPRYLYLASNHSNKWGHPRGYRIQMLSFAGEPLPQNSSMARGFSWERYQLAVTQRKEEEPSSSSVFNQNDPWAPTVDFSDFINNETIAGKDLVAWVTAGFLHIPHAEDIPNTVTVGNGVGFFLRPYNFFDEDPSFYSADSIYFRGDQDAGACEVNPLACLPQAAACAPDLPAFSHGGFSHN
Bovine LOX, sequence (P33072 170-418): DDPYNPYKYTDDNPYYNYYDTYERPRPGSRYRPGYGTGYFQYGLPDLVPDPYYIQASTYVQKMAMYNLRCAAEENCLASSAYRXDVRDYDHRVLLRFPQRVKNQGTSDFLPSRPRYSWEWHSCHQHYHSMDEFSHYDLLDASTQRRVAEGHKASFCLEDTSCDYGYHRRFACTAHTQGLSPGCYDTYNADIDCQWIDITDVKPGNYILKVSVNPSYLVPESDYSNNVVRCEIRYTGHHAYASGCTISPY
Human LOXL2, sequence (Q9Y4K0 26-774): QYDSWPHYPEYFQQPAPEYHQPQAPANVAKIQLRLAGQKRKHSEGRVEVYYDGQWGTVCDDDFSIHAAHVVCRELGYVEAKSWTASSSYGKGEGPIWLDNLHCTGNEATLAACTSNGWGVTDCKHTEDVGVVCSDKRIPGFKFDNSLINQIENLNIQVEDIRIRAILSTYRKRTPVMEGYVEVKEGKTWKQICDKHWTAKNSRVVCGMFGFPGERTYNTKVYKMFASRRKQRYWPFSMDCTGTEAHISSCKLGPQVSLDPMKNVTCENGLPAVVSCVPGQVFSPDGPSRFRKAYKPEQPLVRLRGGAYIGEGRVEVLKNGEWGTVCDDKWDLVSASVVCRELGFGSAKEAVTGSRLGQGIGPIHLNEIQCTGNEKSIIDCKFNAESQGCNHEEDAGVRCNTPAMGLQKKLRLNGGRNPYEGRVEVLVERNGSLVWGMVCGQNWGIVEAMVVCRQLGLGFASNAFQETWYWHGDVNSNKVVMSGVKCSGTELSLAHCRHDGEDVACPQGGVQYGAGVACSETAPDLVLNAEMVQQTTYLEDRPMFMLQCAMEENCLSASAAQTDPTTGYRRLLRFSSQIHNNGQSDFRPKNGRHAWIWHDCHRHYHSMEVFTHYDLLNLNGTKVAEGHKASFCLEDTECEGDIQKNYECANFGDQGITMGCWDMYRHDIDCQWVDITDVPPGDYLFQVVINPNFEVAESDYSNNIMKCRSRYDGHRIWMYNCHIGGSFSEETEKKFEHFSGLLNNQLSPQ

SMILES | IC50 (Human LOXL2) | IC50 (Bovine LOX) | IC50 (Recombinant human MAO-B) | IC50 [1]
CCOC(=O)c1cc2c(-c3cccc(S(=O)(=O)N(C)C)c3)c(C)n(C/C(F)=C/CN)c2cc1F [Compound 22, (Z)-ethyl 1-(4-amino-2-fluorobut-2-en-1-yl)-3-(3-(N,N-dimethylsulfamoyl)phenyl)-6-fluoro-2-methyl-1H-indole-5-carboxylate] | < 0.3 µM | > 0.3 µM | > 3 µM | > 3 µM
Cc1c(-c2ccc(F)cc2)c2cc(C(=O)O)ccc2n1C/C(F)=C/CN [Compound 23, (Z)-1-(4-amino-2-fluorobut-2-en-1-yl)-3-(4-fluorophenyl)-2-methyl-1H-indole-5-carboxylic acid] | < 0.3 µM | > 0.3 µM | > 3 µM | > 3 µM
CCOC(=O)c1ccc2c(c1)c(-c1ccc(F)cc1)c(C)n2C/C(F)=C/CN [Compound 24, ethyl (Z)-1-(4-amino-2-fluorobut-2-en-1-yl)-3-(4-fluorophenyl)-2-methyl-1H-indole-5-carboxylate] | < 0.3 µM | > 0.3 µM | > 3 µM | > 3 µM
Cc1c(-c2cccc(S(=O)(=O)N(C)C)c2)c2cnccc2n1C/C(F)=C/CN [Compound 26, (Z)-3-(1-(4-amino-2-fluorobut-2-en-1-yl)-2-methyl-1H-pyrrolo[3,2-c]pyridin-3-yl)-N,N-dimethylbenzenesulfonamide Dihydrochloride] | < 0.3 µM | > 0.3 µM | > 3 µM | > 3 µM
CCOC(=O)c1ccc2c(c1)c(-c1cccc(Cl)c1)c(C)n2C/C(F)=C/CN [Compound 27, ethyl (Z)-1-(4-amino-2-fluorobut-2-en-1-yl)-3-(3-chlorophenyl)-2-methyl-1H-indole-5-carboxylate] | < 0.3 µM | > 0.3 µM | > 3 µM | > 3 µM
Cc1c(-c2cccc(Cl)c2)c2cc(C(=O)O)ccc2n1C/C(F)=C/CN [Compound 28, (Z)-1-(4-amino-2-fluorobut-2-en-1-yl)-3-(3-chlorophenyl)-2-methyl-1H-indole-5-carboxylic acid] | < 0.3 µM | > 0.3 µM | > 3 µM | > 3 µM
Cc1c(-c2cccc(S(=O)(=O)N(C)C)c2)c2cc(-c3nn[nH]n3)ccc2n1C/C(F)=C/CN [Compound 29, (Z)-3-(1-(4-amino-2-fluorobut-2-en-l-yl)-2-methyl-5-(2H-tetrazol-5-yl)-1H-indol-3-yl)-N,N-dimethylbenzenesulfonamide, Hydrochloride] | < 0.3 µM | > 0.3 µM | > 3 µM | > 3 µM
CCOC(=O)c1ccc2c(c1)c(-c1cccc(C(C)(C)C)c1)c(C)n2C/C(F)=C/CN [Compound 30, ethyl (Z)-1-(4-amino-2-fluorobut-2-en-1-yl)-3-(3-(tert-butyl)phenyl)-2-methyl-1H-indole-5-carboxylate] | < 0.3 µM | > 0.3 µM | > 3 µM | > 3 µM
Cc1c(-c2cccc(C(C)(C)C)c2)c2cc(C(=O)O)ccc2n1C/C(F)=C/CN [Compound 31, (Z)-1-(4-amino-2-fluorobut-2-en-l-yl)-3-(3-(tert-butyl)phenyl)-2-methyl-1H-indole-5-carboxylic acid, Hydrochloride] | < 0.3 µM | > 0.3 µM | > 3 µM | > 3 µM
Cc1c(-c2cccc(S(=O)(=O)N(C)C)c2)c2ccncc2n1C/C(F)=C/CN [Compound 32, (Z)-3-(1-(4-amino-2-fluorobut-2-en-1-yl)-2-methyl-1H-pyrrolo[2,3-c]pyridin-3-yl)-N,N-dimethylbenzenesulfonamide Dihydrochloride] | < 0.3 µM | > 0.3 µM | > 3 µM | > 3 µM
CCOC(=O)c1cccc(-c2c(C)n(C/C(F)=C/CN)c3ccc(S(=O)(=O)N(C)C)cc23)c1 [Compound 33, ethyl (Z)-3-(1-(4-amino-2-fluorobut-2-en-1-yl)-5-(N,N-dimethylsulfamoyl)-2-methyl-1H-indol-3-yl)benzoate] | < 0.3 µM | > 0.3 µM | > 3 µM | > 3 µM
Cc1c(-c2cccc(C(=O)O)c2)c2cc(S(=O)(=O)N(C)C)ccc2n1C/C(F)=C/CN [Compound 34, (Z)-3-(1-(4-amino-2-fluorobut-2-en-1-yl)-5-(N,N-dimethylsulfamoyl)-2-methyl-1H-indol-3-yl)benzoic acid] | < 0.3 µM | > 0.3 µM | > 3 µM | > 3 µM
Cc1c(-c2cccc(S(=O)(=O)N(C)C)c2)c2cc(C(=O)NC(C)C)ccc2n1C/C(F)=C/CN [Compound 35, (Z)-1-(4-amino-2-fluorobut-2-en-1-yl)-3-(3-(N,N-dimethylsulfamoyl)phenyl)-N-isopropyl-2-methyl-1H-indole-5-carboxamide] | < 0.3 µM | > 0.3 µM | > 3 µM | > 3 µM
Cc1c(-c2cccc(S(=O)(=O)N(C)C)c2)c2cc(C(=O)N(C)C(C)C)ccc2n1C/C(F)=C/CN [Compound 36, (Z)-1-(4-amino-2-fluorobut-2-en-1-yl)-3-(3-(N,N-dimethylsulfamoyl)phenyl)-N-isopropyl-N,2-dimethyl-1H-indole-5-carboxamide] | < 0.3 µM | > 0.3 µM | > 3 µM | > 3 µM
